“And” between values parts separate entries of the source, which are not always exact repeats. Equal entries are not always repeated. Inconclusive results and toxic doses are left out.

The test system of this test is L1210 leukemia ip in BDF1 mice, survival T/C. Briefly: NCI In Vivo Anticancer Drug Screen. Data for tumor model L1210 Leukemia (intraperitoneal) in B6D2F1 (BDF1) mice. The conditions noted are these: endpoint: mean survival time, higher = longer survival. The essentials:
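Transplantable tumor model; survival measured in treated vs vehicle control mice. Value = treated/control.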

[1] abbreviates: dose: 0.25 mg/kg/injection, schedule: Q01DX009 (ip), vehicle: saline.
[2] abbreviates: dose: 400.0 mg/kg/injection, schedule: Q01DX001 (ip), vehicle: other.
The mark [3] stands for this setting: dose: 100.0 mg/kg/injection, schedule: Q01DX001 (ip), vehicle: Klucel (hydroxypropylcellulose) (HPC).
Where [4] appears, read: dose: 200.0 mg/kg/injection, schedule: Q01DX001 (ip), vehicle: Klucel (hydroxypropylcellulose) (HPC).
The mark [5] stands for this setting: dose: 400.0 mg/kg/injection, schedule: Q01DX001 (ip), vehicle: Klucel (hydroxypropylcellulose) (HPC).
Where [6] appears, read: dose: 100.0 mg/kg/injection, schedule: Q01DX001 (ip), vehicle: saline.
[7] abbreviates: dose: 200.0 mg/kg/injection, schedule: Q01DX001 (ip), vehicle: saline.
[8] abbreviates: dose: 400.0 mg/kg/injection, schedule: Q01DX001 (ip), vehicle: saline.
Where [9] appears, read: dose: 100.0 mg/kg/injection, schedule: Q01DX009 (ip), vehicle: saline with Tween-80.
The mark [10] stands for this setting: dose: 100.0 mg/kg/injection, schedule: Q04DX003 (ip), vehicle: saline with Tween-80.
[11] abbreviates: dose: 200.0 mg/kg/injection, schedule: Q01DX009 (ip), vehicle: saline with Tween-80.
The mark [12] stands for this setting: dose: 200.0 mg/kg/injection, schedule: Q04DX003 (ip), vehicle: saline with Tween-80.
Where [13] appears, read: dose: 400.0 mg/kg/injection, schedule: Q04DX003 (ip), vehicle: saline with Tween-80.
Where [14] appears, read: dose: 100.0 mg/kg/injection, schedule: Q04DX002 (ip), vehicle: Klucel (hydroxypropylcellulose) (HPC).
[15] abbreviates: dose: 200.0 mg/kg/injection, schedule: Q04DX002 (ip), vehicle: Klucel (hydroxypropylcellulose) (HPC).
The mark [16] stands for this setting: dose: 400.0 mg/kg/injection, schedule: Q04DX002 (ip), vehicle: Klucel (hydroxypropylcellulose) (HPC).

Regarding `O=NN(CCCl)C(=O)Nc1ccc(CCO)cc1`, the T/C by setting is: under setting [1], 112 % of control; (dose: 0.38 mg/kg/injection, schedule: Q01DX009 (ip), vehicle: saline) 114 % of control; (dose: 0.59 mg/kg/injection, schedule: Q01DX009 (ip), vehicle: saline) 164 % of control; (dose: 0.89 mg/kg/injection, schedule: Q01DX009 (ip), vehicle: saline) 205 % of control; (dose: 7.0 mg/kg/injection, schedule: Q01DX009 (ip), vehicle: saline) 202 % of control; (dose: 10.0 mg/kg/injection, schedule: Q01DX009 (ip), vehicle: saline) 109 % of control. The T/C is, setting by setting: (dose: 78.0 mg/kg/injection, schedule: Q01DX001 (ip), vehicle: other) 185 % of control; (dose: 119.0 mg/kg/injection, schedule: Q01DX001 (ip), vehicle: other) 201 % of control; (dose: 178.0 mg/kg/injection, schedule: Q01DX001 (ip), vehicle: carboxymethylcellulose (CMC)) 242 % of control; (dose: 178.0 mg/kg/injection, schedule: Q01DX001 (ip), vehicle: other) 160 % of control and 235 % of control; (dose: 266.0 mg/kg/injection, schedule: Q01DX001 (ip), vehicle: carboxymethylcellulose (CMC)) 226 % of control; (dose: 266.0 mg/kg/injection, schedule: Q01DX001 (ip), vehicle: other) 193 % of control. Moreover, the T/C by setting is: (dose: 400.0 mg/kg/injection, schedule: Q01DX001 (ip), vehicle: carboxymethylcellulose (CMC)) 276 % of control; under setting [2], 182 % of control; (dose: 600.0 mg/kg/injection, schedule: Q01DX001 (ip), vehicle: carboxymethylcellulose (CMC)) 244 % of control.

Consider `CCCCCCCCCCCCCC(S(=O)(=O)CC)S(=O)(=O)CC`, for which the T/C by setting is: under setting [3], 89 % of control; under setting [4], 87 % of control; under setting [5], 87 % of control.

Regarding `CC1=NN(c2cccc([N+](=O)[O-])c2)C(=O)C1`, the T/C is, setting by setting: (dose: 100.0 mg/kg/injection, schedule: Q01DX001 (ip), vehicle: saline with Tween-80) 96 % of control; (dose: 200.0 mg/kg/injection, schedule: Q01DX001 (ip), vehicle: saline with Tween-80) 96 % of control; (dose: 400.0 mg/kg/injection, schedule: Q01DX001 (ip), vehicle: saline with Tween-80) 98 % of control.

On to `CNC(=O)C1NCCc2cc(OC)c(OC)cc21` (configuration not stated), for which the T/C under setting [6] is 97 % of control, the T/C under setting [7] was 95 % of control and the T/C under setting [8] was 91 % of control.

Turning to `CNC(=O)Oc1ccc(N=Nc2ccccc2)cc1`, the T/C is 96 % of control (dose: 100.0 mg/kg/injection, schedule: Q01DX001 (ip), vehicle: other); 96 % of control (dose: 200.0 mg/kg/injection, schedule: Q01DX001 (ip), vehicle: other); 96 % of control under setting [2].

For `COC(=O)C(CSCSC)NC(=O)/C=C/c1ccccc1Cl` (configuration not stated), the T/C (dose: 50.0 mg/kg/injection, schedule: Q01DX009 (ip), vehicle: saline with Tween-80) was 97 % of control and 86 % of control; the T/C under setting [9] is 92 % of control; the T/C under setting [10] is 94 % of control; the T/C under setting [11] is 93 % of control and 92 % of control; the T/C under setting [12] was 91 % of control; the T/C under setting [13] was 87 % of control.

With `CC(=O)Nc1ccc(NC(=O)Nc2ccc(F)cc2)cc1`, the T/C under setting [14] is 108 % of control, the T/C under setting [15] is 118 % of control and the T/C under setting [16] is 105 % of control.

For `CC1(C)CC(C(=O)c2ccccc2)C(=O)c2ccccc21` (configuration not stated), the T/C was 105 % of control under setting [3], 97 % of control under setting [4] and 86 % of control under setting [5].

Take `COc1ccc(CCCCC(=O)O)cc1O`: the T/C under setting [6] is 103 % of control, the T/C under setting [7] was 103 % of control and the T/C under setting [8] is 107 % of control.

With `CC(C(=O)c1cccs1)C(O)(C(F)(F)F)C(F)(F)F` (configuration not stated), the T/C runs as follows: (dose: 100.0 mg/kg/injection, schedule: Q04DX003 (ip), vehicle: Klucel (hydroxypropylcellulose) (HPC)) 95 % of control; (dose: 200.0 mg/kg/injection, schedule: Q04DX003 (ip), vehicle: Klucel (hydroxypropylcellulose) (HPC)) 95 % of control; (dose: 400.0 mg/kg/injection, schedule: Q04DX003 (ip), vehicle: Klucel (hydroxypropylcellulose) (HPC)) 103 % of control.

As for `Cc1cc(C)c(NC(=O)NC2CCCCC2)cc1C`, the T/C reads like this: under setting [14], 105 % of control; under setting [15], 94 % of control; under setting [16], 94 % of control.

For `COc1cc(C(=O)Nc2cc(C(F)(F)F)ccc2Cl)cc(OC)c1OC`, the T/C reads like this: (dose: 100.0 mg/kg/injection, schedule: Q01DX009 (ip), vehicle: Klucel (hydroxypropylcellulose) (HPC)) 106 % of control; (dose: 200.0 mg/kg/injection, schedule: Q01DX009 (ip), vehicle: Klucel (hydroxypropylcellulose) (HPC)) 100 % of control; (dose: 400.0 mg/kg/injection, schedule: Q01DX009 (ip), vehicle: Klucel (hydroxypropylcellulose) (HPC)) 97 % of control.

For `O=C1NCC2(CCCCCC2)O1`, the T/C runs as follows: under setting [6], 104 % of control; under setting [7], 108 % of control.

As for `ClCCCNCc1ccc(-c2c3ccccc3cc3c2ccc2ccccc23)cc1`, the T/C is 95 % of control (dose: 100.0 mg/kg/injection, schedule: Q01DX001 (ip), vehicle: carboxymethylcellulose (CMC)) and 101 % of control (dose: 200.0 mg/kg/injection, schedule: Q01DX001 (ip), vehicle: carboxymethylcellulose (CMC)).

`CNC(=O)Oc1cccc(NC(=O)N(C(C)C)C(C)C)c1`: the T/C runs as follows: under setting [10], 91 % of control; under setting [12], 89 % of control; under setting [13], 88 % of control.

Turning to `O=CC(NC(=O)c1ccccc1)C(O)C(O)C(O)CO` (configuration not stated), the T/C is 98 % of control under setting [3], 105 % of control under setting [4] and 105 % of control under setting [5].

For the molecule `Cc1ccc(CNc2ccccc2)cc1`, the T/C (dose: 12.5 mg/kg/injection, schedule: Q04DX003 (ip), vehicle: saline with Tween-80) was 95 % of control; the T/C (dose: 25.0 mg/kg/injection, schedule: Q04DX003 (ip), vehicle: saline with Tween-80) was 95 % of control; the T/C (dose: 50.0 mg/kg/injection, schedule: Q04DX003 (ip), vehicle: saline with Tween-80) was 97 % of control; the T/C (dose: 100.0 mg/kg/injection, schedule: Q01DX009 (ip), vehicle: other) was 112 % of control; the T/C (dose: 200.0 mg/kg/injection, schedule: Q01DX009 (ip), vehicle: other) is 93 % of control; the T/C (dose: 400.0 mg/kg/injection, schedule: Q01DX009 (ip), vehicle: other) was 93 % of control.

`Nc1nc2nc3c(nc2c(=O)[nH]1)CN(c1ccc(C(=O)NC(CCC(=O)O)C(=O)O)cc1)C3=O` (configuration not stated): the T/C runs as follows: under setting [9], 93 % of control; under setting [11], 95 % of control.

`CCCC(=O)NC1CC(OC2CC(O)(C(C)=O)Cc3c(O)c4c(c(O)c32)C(=O)c2c(OC)cccc2C4=O)OC(C)C1O` (configuration not stated): the T/C by setting is: under setting [1], 91 % of control; (dose: 0.5 mg/kg/injection, schedule: Q01DX009 (ip), vehicle: saline) 96 % of control; (dose: 1.0 mg/kg/injection, schedule: Q01DX009 (ip), vehicle: saline) 91 % of control; (dose: 2.0 mg/kg/injection, schedule: Q01DX009 (ip), vehicle: saline) 93 % of control; (dose: 4.0 mg/kg/injection, schedule: Q01DX009 (ip), vehicle: saline) 96 % of control.

In the case of `c1ccc(CC(CNCC2C(c3ccccc3)C2c2ccccc2)c2ccccc2)cc1` (configuration not stated), the T/C was 96 % of control (dose: 12.5 mg/kg/injection, schedule: Q04DX002 (ip), vehicle: saline with Tween-80); 93 % of control (dose: 25.0 mg/kg/injection, schedule: Q04DX002 (ip), vehicle: saline with Tween-80); 90 % of control (dose: 50.0 mg/kg/injection, schedule: Q04DX002 (ip), vehicle: saline with Tween-80).

(Values after PubChem BioAssay AID248 (DTP/NCI, 2004).)
